Test results reported in ChEMBL document CHEMBL1134446, “Polyamine analogue antidiarrheals: a structure-activity study” (J Med Chem, 2001).

What was measured:
Canis familiaris [1] = experiment: MESPM/MEHSPH Distribution in kidney was determined after DESPM dosing of 1.87 mg/kg/day for 28 days in dog(cu dose-52.4) and sacrificed at 10 days PLD(cu dose-52.4 mg/kg); format: ADME, organism-based, Canis lupus familiaris; details: in vivo, 240 h
Canis familiaris [2] = experiment: putrescine Distribution in kidney was determined after DESPM dosing of 1.87 mg/kg/day for 28 days in dog and sacrificed at 75 days PLD(cu dose-52.4 mg/kg); format: ADME, organism-based, Canis lupus familiaris; details: in vivo, 1800 h
Canis familiaris [3] = experiment: MESPM/MEHSPH Distribution in kidney was determined after DESPM dosing of 6.0 mg/kg/day for 4.5 days in dog(cu dose-52.4) and sacrificed at 10 days PLD(cu dose-27 mg/kg); format: ADME, organism-based, Canis lupus familiaris; details: in vivo, 240 h
Canis familiaris [4] = experiment: Spermine Distribution in liver was determined after DESPM dosing of 1.87 mg/kg/day for 28 days in dog(cu dose-52.4) and sacrificed at 75 days PLD(cu dose-52.4 mg/kg); format: ADME, organism-based, Canis lupus familiaris; details: in vivo, 1800 h
Canis familiaris [5] = experiment: Spermine Distribution in kidney was determined after DESPM dosing of 8.0 mg/kg/day for 4.5 days in dog(cu dose-52.4) and sacrificed at 75 days PLD(cu dose-36 mg/kg); format: ADME, organism-based, Canis lupus familiaris; details: in vivo, 1800 h
Canis familiaris [6] = experiment: putrescine Distribution in liver was determined after DESPM dosing of 4 mg/kg/day for 13 days in dog(cu dose-52.4) and sacrificed at 10 days PLD(cu dose-52 mg/kg); format: ADME, organism-based, Canis lupus familiaris; details: in vivo, 240 h
Canis familiaris [7] = experiment: MESPM/MEHSPH Distribution in kidney was determined after DESPM dosing of 1.87 mg/kg/day for 28 days in dog(cu dose-52.4) and sacrificed at 75 days PLD(cu dose-52.4 mg/kg); format: ADME, organism-based, Canis lupus familiaris; details: in vivo, 1800 h
Canis familiaris [8] = experiment: Spermidine Distribution in kidney was determined after DESPM dosing of 6.0 mg/kg/day for 4.5 days in dog(cu dose-52.4) and sacrificed at 10 days PLD(cu dose-27 mg/kg); format: ADME, organism-based, Canis lupus familiaris; details: in vivo, 240 h
Canis familiaris [9] = experiment: putrescine Distribution in liver was determined after DESPM dosing of 1.87 mg/kg/day for 28 days in dog(cu dose-52.4) and sacrificed at 75 days PLD(cu dose-52.4 mg/kg); format: ADME, organism-based, Canis lupus familiaris; details: in vivo, 1800 h
Canis familiaris [10] = experiment: Spermine Distribution in kidney was determined after DESPM dosing of 6.0 mg/kg/day for 4.5 days in dog(cu dose-52.4) and sacrificed at 10 days PLD(cu dose-27 mg/kg); format: ADME, organism-based, Canis lupus familiaris; details: in vivo, 240 h
Canis familiaris [11] = experiment: Spermidine Distribution in liver was determined after DESPM dosing of 8.0 mg/kg/day for 4.5 days in dog(cu dose-52.4) and sacrificed at 75 days PLD(cu dose-36 mg/kg); format: ADME, organism-based, Canis lupus familiaris; details: in vivo, 1800 h
Canis familiaris [12] = experiment: MESPM/MEHSPH Distribution in kidney was determined after DESPM dosing of 8.0 mg/kg/day for 4.5 days in dog(cu dose-52.4) and sacrificed at 10 days PLD(cu dose-36 mg/kg); format: ADME, organism-based, Canis lupus familiaris; details: in vivo, 240 h
Canis familiaris [13] = experiment: Spermidine Distribution in liver was determined after DESPM dosing of 4 mg/kg/day for 13 days in dog(cu dose-52.4) and sacrificed at 75 days PLD(cu dose-52 mg/kg); format: ADME, organism-based, Canis lupus familiaris; details: in vivo, 1800 h
Canis familiaris [14] = experiment: Spermine Distribution in kidney was determined after DESPM dosing of 4 mg/kg/day for 13 days in dog(cu dose-52.4) and sacrificed at 10 days PLD(cu dose-52 mg/kg); format: ADME, organism-based, Canis lupus familiaris; details: in vivo, 240 h
Canis familiaris [15] = experiment: MESPM/MEHSPH Distribution in kidney was determined after DESPM dosing of 4 mg/kg/day for 13 days in dog(cu dose-52.4) and sacrificed at 10 days PLD(cu dose-52 mg/kg); format: ADME, organism-based, Canis lupus familiaris; details: in vivo, 240 h
Rattus norvegicus = experiment: Stool output of rat over the 6-h collection period when a dose of 0 mg/kg (0 administered; format: functional
Canis familiaris [16] = experiment: MESPM/MEHSPH Distribution in liver was determined after DESPM dosing of 1.87 mg/kg/day for 28 days in dog(cu dose-52.4) and sacrificed at 75 days PLD(cu dose-52.4 mg/kg); format: ADME, organism-based, Canis lupus familiaris; details: in vivo, 1800 h
Canis familiaris [17] = experiment: Distribution in liver was determined after DESPM dosing of 4 mg/kg/day for 13 days in dog(cu dose-52.4) and sacrificed at 10 days PLD(cu dose-52 mg/kg); format: ADME, organism-based, Canis lupus familiaris; details: in vivo, 240 h
Canis familiaris [18] = experiment: Distribution in kidney was determined after DEHSPM dosing of 2.0 mg/kg/day for 29 days in dog(cu dose-52.4) and sacrificed at 10 days PLD(cu dose-22 mg/kg); format: ADME, organism-based, Canis lupus familiaris; details: in vivo, 240 h
Canis familiaris [19] = experiment: MESPM/MEHSPH Distribution in kidney was determined after DEHSPM dosing of 2.0 mg/kg/day for 29 days in dog(cu dose-52.4) and sacrificed at 10 days PLD(cu dose-22 mg/kg); format: ADME, organism-based, Canis lupus familiaris; details: in vivo, 240 h
Canis familiaris [20] = experiment: Distribution in liver was determined after DESPM dosing of 1.87 mg/kg/day for 28 days in dog(cu dose-52.4) and sacrificed at 10 days PLD(cu dose-52.4 mg/kg); format: ADME, organism-based, Canis lupus familiaris; details: in vivo, 240 h
Canis familiaris [21] = experiment: Distribution in liver was determined after DEHSPM dosing of 2.0 mg/kg/day for 29 days in dog(cu dose-52.4) and sacrificed at 10 days PLD(cu dose-22 mg/kg); format: ADME, organism-based, Canis lupus familiaris; details: in vivo, 240 h
Canis familiaris [22] = experiment: HSPM Distribution in kidney was determined after DEHSPM dosing of 2.0 mg/kg/day for 29 days in dog(cu dose-52.4) and sacrificed at 10 days PLD(cu dose-58 mg/kg); format: ADME, organism-based, Canis lupus familiaris; details: in vivo, 240 h
Canis familiaris [23] = experiment: Distribution in kidney was determined after DESPM dosing of 4 mg/kg/day for 13 days in dog(cu dose-52.4) and sacrificed at 10 days PLD(cu dose-52 mg/kg); format: ADME, organism-based, Canis lupus familiaris; details: in vivo, 240 h
Canis familiaris [24] = experiment: Distribution in liver was determined after DESPM dosing of 6.0 mg/kg/day for 4.5 days in dog(cu dose-52.4) and sacrificed at 75 days PLD(cu dose-27 mg/kg); format: ADME, organism-based, Canis lupus familiaris; details: in vivo, 1800 h
Canis familiaris [25] = experiment: Spermine Distribution in kidney was determined after DEHSPM dosing of 2.0 mg/kg/day for 29 days in dog(cu dose-52.4) and sacrificed at 10 days PLD(cu dose-22 mg/kg); format: ADME, organism-based, Canis lupus familiaris; details: in vivo, 240 h
Canis familiaris [26] = experiment: Distribution in kidney was determined after DESPM dosing of 1.87 mg/kg/day for 28 days in dog(cu dose-52.4) and sacrificed at 75 days PLD(cu dose-52.4 mg/kg); format: ADME, organism-based, Canis lupus familiaris; details: in vivo, 1800 h
Canis familiaris [27] = experiment: Distribution in liver was determined after DESPM dosing of 8.0 mg/kg/day for 4.5 days in dog(cu dose-52.4) and sacrificed at 10 days PLD(cu dose-36 mg/kg); format: ADME, organism-based, Canis lupus familiaris; details: in vivo, 240 h
Canis familiaris [28] = experiment: Distribution in kidney was determined after DESPM dosing of 6.0 mg/kg/day for 4.5 days in dog(cu dose-52.4) and sacrificed at 10 days PLD(cu dose-27 mg/kg); format: ADME, organism-based, Canis lupus familiaris; details: in vivo, 240 h
Canis familiaris [29] = experiment: HSPM Distribution in liver was determined after DEHSPM dosing of 2.0 mg/kg/day for 29 days in dog(cu dose-52.4) and sacrificed at 10 days PLD(cu dose-58 mg/kg); format: ADME, organism-based, Canis lupus familiaris; details: in vivo, 240 h
Canis familiaris [30] = experiment: Spermidine Distribution in kidney was determined after DEHSPM dosing of 2.0 mg/kg/day […] in dog(cu dose-52.4) and sacrificed at 10 days PLD(cu dose-22 mg/kg); format: ADME, organism-based, Canis lupus familiaris; details: in vivo, 240 h

Q: For `CCNCCCNCCCCNCCCNCC` [BIS(ETHYL)SPERMINE], which “Wet weight of tissue” value (Canis familiaris [1]) is on record?
A: 12 nM/g

Q: What about the “Wet weight of tissue” value (Canis familiaris [2]) of the same compound?
A: 16 nM/g

Q: And the “Wet weight of tissue” value (Canis familiaris [3])?
A: 10 nM/g

Q: And the “Wet weight of tissue” value (Canis familiaris [4])?
A: 649 nM/g

Q: What about the “Wet weight of tissue” value (Canis familiaris [5]) of the same compound?
A: 624 nM/g

Q: What about the “Wet weight of tissue” value (Canis familiaris [6]) of the same compound?
A: 82 nM/g

Q: And the “Wet weight of tissue” value (Canis familiaris [7])?
A: 0 nM/g

Q: And the “Wet weight of tissue” value (Canis familiaris [8])?
A: 60 nM/g

Q: And the “Wet weight of tissue” value (Canis familiaris [9])?
A: 28 nM/g

Q: What about the “Wet weight of tissue” value (Canis familiaris [10]) of the same compound?
A: 654 nM/g

Q: And the “Wet weight of tissue” value (Canis familiaris [11])?
A: 221 nM/g

Q: And the “Wet weight of tissue” value (Canis familiaris [12])?
A: 12 nM/g

Q: And the “Wet weight of tissue” value (Canis familiaris [13])?
A: 264 nM/g

Q: What about the “Wet weight of tissue” value (Canis familiaris [14]) of the same compound?
A: 277 nM/g

Q: And the “Wet weight of tissue” value (Canis familiaris [15])?
A: 7 nM/g

Q: And the Stool output (Rattus norvegicus)?
A: 7.5 g (350g of rat weight)-1

Q: And the “Wet weight of tissue” value (Canis familiaris [16])?
A: 0 nM/g

Q: Which “Wet weight of tissue” value (Canis familiaris [17]) does the source give for `CCNCCCCNCCCCNCCCCNCC` [DIETHYLHOMOSPERMINE] here?
A: 36 nM/g

Q: And the “Wet weight of tissue” value (Canis familiaris [18])?
A: 0 nM/g

Q: What about the “Wet weight of tissue” value (Canis familiaris [19]) of the same compound?
A: 3 nM/g

Q: And the “Wet weight of tissue” value (Canis familiaris [20])?
A: 18 nM/g

Q: And the “Wet weight of tissue” value (Canis familiaris [21])?
A: 0 nM/g

Q: What about the “Wet weight of tissue” value (Canis familiaris [22]) of the same compound?
A: 269 nM/g

Q: And the “Wet weight of tissue” value (Canis familiaris [23])?
A: 46 nM/g

Q: What about the “Wet weight of tissue” value (Canis familiaris [24]) of the same compound?
A: 0 nM/g

Q: And the “Wet weight of tissue” value (Canis familiaris [25])?
A: 611 nM/g

Q: And the “Wet weight of tissue” value (Canis familiaris [26])?
A: 0 nM/g

Q: And the “Wet weight of tissue” value (Canis familiaris [27])?
A: 29 nM/g

Q: And the “Wet weight of tissue” value (Canis familiaris [28])?
A: 44 nM/g

Q: What about the “Wet weight of tissue” value (Canis familiaris [29]) of the same compound?
A: 751 nM/g

Q: What about the “Wet weight of tissue” value (Canis familiaris [30]) of the same compound?
A: 68 nM/g
